The values that follow come from publication PMC12402854 (Angewandte Chemie (International Ed. in English), 2025).

The test concerns the target T1, Xeroderma pigmentosum type B (XPB) (Homo sapiens, UniProt P19447).
T1 sequence (P19447 1-782): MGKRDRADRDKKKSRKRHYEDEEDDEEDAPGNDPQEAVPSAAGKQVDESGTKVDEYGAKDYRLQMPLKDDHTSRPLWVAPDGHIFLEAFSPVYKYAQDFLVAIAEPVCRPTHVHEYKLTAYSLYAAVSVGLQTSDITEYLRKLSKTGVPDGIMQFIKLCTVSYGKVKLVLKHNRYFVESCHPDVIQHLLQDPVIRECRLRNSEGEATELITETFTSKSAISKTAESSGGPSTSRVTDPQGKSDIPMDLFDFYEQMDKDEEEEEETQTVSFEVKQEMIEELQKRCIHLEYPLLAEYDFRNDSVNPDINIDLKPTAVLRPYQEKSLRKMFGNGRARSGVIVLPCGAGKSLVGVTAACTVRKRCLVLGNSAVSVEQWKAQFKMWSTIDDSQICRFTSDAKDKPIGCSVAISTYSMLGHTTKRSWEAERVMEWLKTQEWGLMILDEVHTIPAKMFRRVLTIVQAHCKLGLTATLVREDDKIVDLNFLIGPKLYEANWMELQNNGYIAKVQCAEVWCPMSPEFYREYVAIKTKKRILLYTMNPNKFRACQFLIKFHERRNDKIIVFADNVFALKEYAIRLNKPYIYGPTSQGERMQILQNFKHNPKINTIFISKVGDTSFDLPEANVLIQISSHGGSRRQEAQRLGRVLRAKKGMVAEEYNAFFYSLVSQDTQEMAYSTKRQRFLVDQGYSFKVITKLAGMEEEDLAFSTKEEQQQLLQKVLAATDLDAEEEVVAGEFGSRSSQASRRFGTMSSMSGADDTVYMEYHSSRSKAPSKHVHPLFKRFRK
The test is described as follows: live-cell covalent labelling, click to TAMRA, in-gel fluorescence. The class given is cell-based.

As usually defined, the EC50 is the concentration that produces a half-maximal response.

With triptolide-alkyne [TL-alk], the EC50 is 92.6 nM.
